Experimental data reported in patent US12408666B2, “Pyridyloxy carboxylate derivative, preparation method therefor, herbicidal composition and use thereof” (priority 2018, dated 2025).

Tests used:
Soybean = assay: Spray drift test by unmanned gyroplane, neighbouring soybean field; type: in vivo; conditions: 600 g/ha applied by unmanned gyroplane, soybean field at 10 meters, gentle breeze
Procedure: Broadleaf crops are very sensitive to hormonal herbicides, therefore crop injuries are more likely to occur in case of spray drifting. Tests were conducted in gentle breeze for the compounds of the present invention. The formulation of the compounds of the present invention was applied by DJI unmanned gyroplane with application height of 1 m and water volume of 20 kg/ha. The use rate was 600 g/ha. The active ingredient was dissolved by acetone and diluted to aqueous solution of Tween 80. There's a soybean field at 10 meters from the application area and the height of soybean plants were about 15 cm at the application time.

Monochoria vaginalis = assay: Weed control effect evaluation in rice field; type: in vivo; conditions: paddy pot, 50 g/ha, 14 days after treatment, resistant to pyrazosulfuron-ethyl and penoxsulam
Procedure: Rice field soil was loaded into a 1/1,000,000 ha pot. The seeds of Monochoria vaginalis were sowed and gently covered with soil, then left to stand still in greenhouse in the state of 0.5-1 cm of water storage. It was kept at 3-4 cm of water storage thereafter. The weeds were treated by dripping the WP or SC water diluents prepared according to the common preparation method of the compounds of the present invention with pipette homogeneously to achieve specified effective amount when Monochoria vaginalis reached 0.5 leaf stage.
The fertility condition of Monochoria vaginalis 14 days and rice 21 days after the treatment of the compound of the invention with the naked eye.
Note: The seeds of Monochoria vaginalis were collected from Heilongjing Province of China.

[1] = system: Echinochloa crusgalli, Digitaria sanguinalis, Leptochloa chinensis and Setaria viridis; conditions: commercial product; cited from earlier work
Japonica rice = assay: Post-emergence test, crop safety (Table 4); type: in vivo; conditions: 3 weeks after treatment
Procedure: (§1) Post-emergence test experiment: Monocotyledonous and dicotyledonous weed seeds and main crop seeds (i. e. wheat, corn, rice, soybean, cotton, oilseed, millet and sorghum.) were put into a plastic pot loaded with soil. Then covered with 0.5-2 cm soil, the seeds were allowed to grow in good greenhouse environment. The test plants were treated at 2-3 leaf stage 2 weeks after sowing. The test compounds of the invention were dissolved with acetone respectively, then added with tween-80, and using 1.5 liters per hectare of an emulsible concentrate of methyl oleate as a synergist, and diluted by certain amount of water to certain concentration. The solution was sprayed to the plants with a sprayer. Then the plants were cultured for 3 weeks in the greenhouse, and the experiment result of weed controlling effect after 3 weeks was listed in tables 3-4.
(§2) […] Echinochloa crusgalli and Cyperus iria were collected from Hunan province of China, and were resistant to ALS inhibitor herbicides.

Indica rice = assay: Post-emergence test, crop safety (Table 4); type: in vivo; conditions: 3 weeks after treatment
Procedure: as §1, §2

Echinochloa crusgalli = assay: Post-emergence test, ALS-resistant weed (Table 4); type: in vivo; conditions: Echinochloa crus-galli, 504 h, 3 weeks, resistant to ALS inhibitor herbicides, read-out: Echinochloa crusgalli, activity level (growth inhibition rate)
Procedure: as §1
(§3) Note: the application dose was active ingredient 600 g/ha, plus water 450 kg/ha. Echinochloa crusgalli and Cyperus iria were collected from Hunan province of China, and were resistant to ALS inhibitor herbicides.

Cyperus iria = assay: Post-emergence test, ALS-resistant weed (Table 4); type: in vivo; conditions: 504 h, 3 weeks, resistant to ALS inhibitor herbicides, read-out: Cyperus iria, activity level (growth inhibition rate)
Procedure: as §1, §3

rice = conditions: known compound; cited from earlier work

Structure (SMILES): CCOC(=O)C(C)Oc1nc(F)c(Cl)c(N)c1Cl (centres unmarked) [Control compound C]
- Soybean, injury level from spray drift (Soybean): 3 (Level 3: the growth inhibition rate is equal to or greater than 40% and less than 60%)

Structure (SMILES): COc1cnc(OC)n2nc(NS(=O)(=O)c3c(OCC(F)F)cccc3C(F)(F)F)nc12 [Penoxsulam]
- Monochoria Vaginalis, activity level (Monochoria vaginalis): 1 (Level 1: the growth inhibition rate is equal to or greater than 5% and less than 20%)

Structure (SMILES): CCCCOCC(C)OC(=O)COc1nc(F)c(Cl)c(N)c1Cl (centres unmarked) [Control compound B]
- Efficacy on key grasses in rice [1]: very poor
- Japonica rice, activity level (growth inhibition rate) (Japonica rice; 600 g/ha): 2 (Level 2: the growth inhibition rate is equal to or greater than 20% and less than 40%)
- Indica rice, activity level (growth inhibition rate) (Indica rice; 600 g/ha): 2 (Level 2: the growth inhibition rate is equal to or greater than 20% and less than 40%)
- inhibition at 600 g/ha (Echinochloa crusgalli): 20 to 40%
- inhibition at 600 g/ha (Cyperus iria): 40 to 60%

Structure (SMILES): COc1cc(OC)nc(Oc2cccc(Oc3nc(OC)cc(OC)n3)c2C(=O)O)n1 [Bispyribac-sodium]
- Japonica rice, activity level (growth inhibition rate) (Japonica rice; 100 g/ha): 4 (Level 4: the growth inhibition rate is equal to or greater than 60% and less than 85%)
- Indica rice, activity level (growth inhibition rate) (Indica rice; 100 g/ha): 2 (Level 2: the growth inhibition rate is equal to or greater than 20% and less than 40%)
- inhibition at 100 g/ha (Echinochloa crusgalli; 100 g/ha): 5 to 20%
- inhibition at 100 g/ha (Cyperus iria; 100 g/ha): 20 to 40%

Structure (SMILES): CC(Oc1nc(F)c(Cl)c(N)c1Cl)C(=O)O (centres unmarked) [Control compound A]
- Safety and selectivity (rice): poor safety and low selectivity
- Japonica rice, activity level (growth inhibition rate) (Japonica rice; 300 g/ha): 2 (Level 2: the growth inhibition rate is equal to or greater than 20% and less than 40%)
- Japonica rice, activity level (growth inhibition rate) (Japonica rice; 600 g/ha): 3 (Level 3: the growth inhibition rate is equal to or greater than 40% and less than 60%)
- Indica rice, activity level (growth inhibition rate) (Indica rice; 300 g/ha): 3 (Level 3: the growth inhibition rate is equal to or greater than 40% and less than 60%)
- Indica rice, activity level (growth inhibition rate) (Indica rice; 600 g/ha): 3 (Level 3: the growth inhibition rate is equal to or greater than 40% and less than 60%)
- inhibition at 300 g/ha (Echinochloa crusgalli; 300 g/ha): 60 to 85%
- inhibition at 600 g/ha (Echinochloa crusgalli): > 85%
- inhibition at 300 g/ha (Cyperus iria; 300 g/ha): 60 to 85%
- inhibition at 600 g/ha (Cyperus iria): > 85%
